{"source": "patent US20220409573A1", "about": "“Hippocampus Regeneration And Memory Recovery” (INNOBIOSCIENCE, LLC, priority 2021, published 2022)", "tested_on": "AT8-positive neurons in APPswe/PS-1 mice", "assay": "AT8 immunohistochemistry in treated APPswe/PS-1 mice", "type": "in vivo", "data": [{"smiles": "C=C1CC[C@@H]2C(C)(CO)[C@H](O)CC[C@@]2(C)C1C/C=C1/C(=O)OC[C@H]1O", "note": "(stereo in doubt) [ANDRO, 3-(2-(Decahydro-6-hydroxy-5-(hydroxymethyl)-5,8a-dimethyl-2-methylenenaphthyl)ethylidene)dihydro-4-hydroxyfuran-2(3H)-one]", "values": [{"measurement": "number of AT8-positive neurons next to amyloid deposits", "setting": "6 month-old APPswe/PS-1 mice, circular area surrounding plaques", "result": "clear decrease in the number of AT8-positive neurons"}, {"measurement": "total AT8-positive cells outside the circular area around the plaques", "setting": "hippocampus", "result": "decrease in the number of these cells"}]}]}
